Results taken from patent publication US20180178031A1, “DENTAL DEVICE AND PHOTODYNAMIC THERAPEUTIC SYSTEM USING SAME” (priority 2016, published 2018).

Legend:
[1] = tested on: gram negative (G (−)) bacteria (Aggregatibacter actinomycetemcomitans, Fusobacterium nucleatum, Porphyromonas gingivalis); experiment: photodynamic therapy bacterial disinfection assay in vitro, G (−) bacteria; assay type: cell-based; conditions: photosensitizer plus infrared laser ray 808 nanometers, irradiating about 5 minutes, in vitro (FIG. 8)
From the text: (§1) One group assay represents the different bacterial disinfection by using the photodynamic therapy method in vitro with a specific irradiated wavelength of the light, and the other group assay represents the different bacterial disinfection by using the photodynamic therapy method in vitro with a specific compound X and the specific irradiated wavelength of the light. […] The light is infrared laser ray. The specific irradiated wavelength of the infrared laser ray of is 808 nanometers. The specific compound X is a photosensitizer. The photosensitizer is the indocyanine green dye. The period of irradiating the bacteria is about 5 minutes. The bacteria include gram positive (G (+)) bacteria and gram negative (G (−)) bacteria. The G (+) bacteria include a Streptococcus mutans (S. mutans) and a Streptococcus sobrinus (S. sobrinus). The G (−) bacteria include an Aggregatibacter actinomycetemcomitans (A. actinomycetemcomitans), a Fusobacterium nucleatum (F. nucleatum), and a Porphyromonas gingivalis (P. gingivalis).

[2] = tested on: gram positive (G (+)) bacteria (Streptococcus mutans, Streptococcus sobrinus); experiment: photodynamic therapy bacterial disinfection assay in vitro, G (+) bacteria; assay type: cell-based; conditions: photosensitizer plus infrared laser ray 808 nanometers, irradiating about 5 minutes, in vitro (FIG. 8)
From the text: as §1

CC1(C)C(/C=C/C=C/C=C/C=C2\N(CCCCS(=O)(=O)O)c3ccc4ccccc4c3C2(C)C)=[N+](CCCCS(=O)(=O)[O-])c2ccc3ccccc3c21 [compound X, indocyanine green]
percentage growth rate of the bacteria [1]: less than 20% | percentage growth rate of the bacteria [2]: zero
